Experimental data reported in publication PMC3003687, “α-Galactosylceramide Analogs with Weak Agonist Activity for Human iNKT Cells Define New Candidate Anti-Inflammatory Agents” (PLoS ONE, 2010).

Columns and labels:
hCD1d = molecular target: T1, hCD1d (Homo sapiens, UniProt P15813); experiment: Loading of hCD1d tetramers with variable glycolipid to CD1d ratios; type: binding; conditions: for lipid excess at which tetramers were efficiently loaded: 20 nM tetramers, 25 to 1000 fold molar excess of glycolipid to hCD1d, HDD3 clone
T1 construct: we generated soluble and fluorescent tetrameric hCD1d molecules loaded with each of the glycolipid analogs; made in house
Text: (§1) To characterize in more detail the iNKT cell TCR recognition of αGalCer analogs presented by human CD1d, we generated soluble and fluorescent tetrameric hCD1d molecules loaded with each of the glycolipid analogs. […] This was similar to the previously reported failure of mouse CD1d tetramer loaded with lysosulfatide to bind detectably to murine non-invariant and sulfatide specific NKT cells, despite a clear reactivity to this lipid upon presentation by APCs; [40]. […] To quantitate their binding avidities to iNKT cell TCRs, we used titration of analog-loaded hCD1d tetramers to determine equilibrium dissociation constants (KD), which are inversely proportional to avidity (Figure 3A and 3B).
(§2) Figure 3 Characterization of human iNKT cell TCR interactions with analog-loaded tetramers. (A) iNKT cell clones were stained with titrated amounts of hCD1d tetramers loaded with the indicated glycolipids (abbreviations as in legend to Figure 1), and the measured MFI values are plotted for selected glycolipids. (B) The equilibrium dissociation constants (KD, inversely proportional to TCR avidity) were determined as the concentrations of tetramers required to yield 50% of maximal binding. Data shown were obtained using the CD4^+ iNKT cell clone HDD3, and similar results (not shown) were obtained with a second CD4^+ clone (HDD11) and a CD4^−8^− double negative iNKT cell clone (HDE3). (C) Analysis of iNKT cell clones labeled with 20 nM of hCD1d tetramers which were loaded with variable excesses of analog to constant hCD1d (25 to 1000 fold molar excess of glycolipid to hCD1d protein). The measured MFI values were normalized as the percent of the maximum staining intensity obtained with each analog loaded tetramer. Data presented were generated with HDD3 (CD4+) iNKT cell clone, and similar results (not shown) were obtained with HDE3 (DN) clone.

human iNKT cell clones = experiment: Cytokine ELISA of human iNKT cell clones stimulated with glycolipid-pulsed CD1d-transfected HeLa cells; type: cell-based; conditions: for EC50: Homo sapiens, iNKT, HDD3 clone, IL-4 levels did not reach a plateau; for iNKT cell clone cytokine response / agonist activity: dose range, IFNγ, IL-4, IL-13, clones HDD3, HDD11, HDE3, HDA7
Description: Capture ELISA assays were used for measurement of cytokine responses of human iNKT cells to αGalCer analogs. One day prior to the experiment, CD1d transfected HeLa cells were plated at 25×10^3 cells/well in 100 µL of medium in flat-bottom 96 well plates. Glycolipids were then added in 100 µL of medium to give final concentrations ranging from 0.05 to 10^4 nM. The APCs were incubated for approximately 18 hours with the glycolipids and then irradiated (10,000 Rad) and washed twice with PBS prior to addition of 25×10^3 iNKT cells well in 300 µL. Supernatants were harvested after 24 hours of co-culture and stored frozen at -20°C. After thawing, aliquots of the supernatants were assayed for specific cytokines by ELISA using capture and biotin-labeled detection antibody pairs specific for GM-CSF, IL-2, IL-4, IL-12p70 and IL-13 (all obtained from BD Biosciences), IFNγ (Thermo-Scientific) or IL-18 (MBL). Specific signals were developed using HRP- conjugated streptavidin (BD Biosciences) and Turbo TMB substrate (Thermo-Scientific). Supernatants were tested pure and/or diluted to give values within a quantitative linear standard curve generated with recombinant cytokines. Curves of dose-dependent cytokine responses and graphs were plotted using the Graphpad Prism Software. EC50 values were calculated using the function log (agonist) response with variable slope, and statistical analyses were carried out using the same software. To calculate concentration-dependent cytokine ratios, IL-4/IFNγ and IL-13/IFNγ ratios were calculated using cytokine values from which background levels (i.e. levels in cultures receiving DMSO vehicle alone) were subtracted. Ratios were calculated by dividing IL-4 or IL-13 concentrations in pg/mL by IFNγ concentration in ng/mL.

[1] = system: human iNKT cells and NK cells; experiment: In vitro transactivation assay (CFSE-labeled iNKT cells co-cultured with PBMC); type: cell-based; conditions: 24 h; for IL-12 levels in supernatants / IL-13 levels in supernatants / IL-18 levels in supernatants / global IFNγ production in supernatants / ability to activate iNKT cells and stimulate NK cell transactivation (IFNγ+ cells): 100 nM; for IL-12 levels in supernatants / IL-13 levels in supernatants / IL-18 levels in supernatants / global IFNγ production in supernatants: ELISA; for ability to activate iNKT cells and stimulate NK cell transactivation (IFNγ+ cells): iNKT/PBMC 1/10, compared with KRN7000
Description: iNKT cells were stained for 5 minutes with 1–20 µM of CFSE (Molecular probes) and 5% FCS in PBS and washed twice. As a positive control, a fraction of CFSE-labeled iNKT cells were preactivated for 30 minutes with 1 µg/mL of PMA and 250 ng/mL of Ionomycin (Sigma-Aldrich) in culture medium and extensively washed. The experiment was initiated by adding CFSE-labeled unstimulated or PMA/Ionomycin-preactivated iNKT cells to freshly prepared PBMC pulsed with vehicle or αGalCer analogs at the indicated concentrations and at an iNKT/PBMC ratio of 1/10 or 1/40. Supernatants and cells were harvested from parallel conditions after the indicated time of co-culture. For intracellular cytokine staining, brefeldin A (Golgiplug, BD Biosciences) was added 4 h before harvesting the cells, which were fixed with 1% paraformaldehyde and permeabilized with 0.1% saponin (Sigma-Aldrich) prior to mAb staining. Experiments with blocking antibodies were performed with 10 µg/mL of preservative-free mAbs, including isotype matched control, anti-IL-2, anti-IL-12, anti-IFNγ and anti-CD40L (all from BD Biosciences) or anti-IL-18 (MBL). For detection of CD40L expression by iNKT cells, co-cultures of iNKT and PBMC were prepared as above, except that monensin (Golgistop, BD Biosciences) and fluorescent CD40L specific mAb (1/10 or 1/20 final dilution) were added at the beginning of the experiment, as previously described.
Figure 6 A novel in vitro “transactivation assay” to assess the ability of human iNKT cells to activate other leukocytes. (A) Format for analysis of transactivation of bystander leukocytes. Flow cytometric analysis was carried out for culture containing iNKT cells co-cultured for 24 hours with fresh human PBMC at a 1/10 ratio. For the intracellular detection of IFNγ, Brefeldin A was added for the last 4 hours. Representative electronic gating is shown for the discrimination of CFSE-labeled iNKT cells, B cells, T cells, and NK cells to measure IFNγ expression (or CD69 expression, not shown). Filled black histograms show staining with vehicle control and are overlaid with open gray histograms for stimulation with 100 nM of KRN7000. (B) Dose-dependent IFNγ and CD40L expression by iNKT cells (top and middle graph, respectively) and IFNγ production by transactivated NK cells (bottom graph), after 24 h of co-culture of CFSE-labeled iNKT cells and PBMCs at a 1/10 ratios and the indicated concentration of either KRN7000 (black filled circles) or the adamantanoyl (AD) analog (open circles). Data are presented for a CD4^+ clone (HDD3), and similar results (not shown) were obtained with a DN clone (HDE3). (C) Effect of specific blockade of various cytokines and CD40L on the activation of iNKT cells and transactivated NK cells. CFSE-labeled iNKT cells and PBMCs were co-cultured at a 1/40 ratio for the indicated time, in the presence of KRN7000 at 25 nM and 10 µg/mL of isotype matched control or specific blocking antibodies as indicated. Average percentages of IFNγ^+ iNKT cells and NK cells, assessed by intracellular staining at 24, 48 and 66 hours, are indicated in the left and right plots, respectively.
Figure 7 Comparison of αGalCer analogs for their ability to induce NK cell transactivation. (A) iNKT cell clones were co-cultured for 24 hours with fresh human PBMC at a 1/10 ratio with 100 nM of the indicated analogs, and Brefeldin A was added for the last 4 hours. The percentages of IFNγ^+ iNKT cells (open bars) and IFNγ^+ NK cells (filled bars) are indicated. Cytokine levels were assessed by ELISA in supernatants from identical conditions in absence of Brefeldin A treatment: (B) IFNγ levels (open bars) and IL-13 levels (filled bars); the detection limit was 82.3 ng/mL for both cytokines. (C) IL-12 levels (open bars) and IL-18 levels (filled bars); the detection limit was 27.4 ng/mL. Results obtained with a CD4^+ clone (HDD3) are presented, and similar data (not shown) were obtained with a DN clone (HDE3).

Human iNKT TCRs = Human iNKT TCRs (Homo sapiens, UniProt A0A075B6N4+A0A0B4J240+P15813); experiment: Equilibrium binding of analog-loaded hCD1d tetramers to iNKT cell clones
Text: For flow cytometric analysis, 6B11 (Vα24Jα18 specific) and mAbs specific for human CD3, CD4, CD8α, CD19, CD40L (CD154), CD56, CD69, GM-CSF & IFNγ were obtained from BD Biosciences. IL-4 and IL-13 specific mAbs were from Biolegend. Vα24 (C15) and Vβ11 (C21) specific mAb were from Immunotech. For antibody blocking in culture assays, non-specific isotype matched control, IL-2, IFNγ, IL-12p70 and CD40L specific mAbs without preservatives were obtained from BD Biosciences and IL-18 specific mAb from Medical & Biological Laboratories (MBL, Nagoya, Japan). Phycoerythrin and allophycocyanin labeled human CD1d tetramers were prepared in our laboratory as previously described. Curves of tetramer equilibrium binding constants and graphs were plotted using the Graphpad Prism Software (Version 5). KD values were calculated using the function non-linear fit (hyperbola, one binding site).
as §1, §2

human iNKT cells = conditions: cited from earlier work

T1 sequence (P15813 20-301 limits assumed): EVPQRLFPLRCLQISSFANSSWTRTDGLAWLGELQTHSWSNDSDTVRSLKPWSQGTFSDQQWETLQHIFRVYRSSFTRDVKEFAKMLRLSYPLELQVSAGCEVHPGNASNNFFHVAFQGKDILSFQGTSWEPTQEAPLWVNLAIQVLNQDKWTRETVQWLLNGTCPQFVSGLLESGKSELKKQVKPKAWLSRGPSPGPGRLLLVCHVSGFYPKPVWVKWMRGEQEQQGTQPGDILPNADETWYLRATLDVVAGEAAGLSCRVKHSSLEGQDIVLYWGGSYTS
T1 sequence (P61769 21-119 partner): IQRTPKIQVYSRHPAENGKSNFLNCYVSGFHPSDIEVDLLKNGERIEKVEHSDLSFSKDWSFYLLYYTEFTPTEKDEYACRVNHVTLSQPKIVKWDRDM
Sequence of Human iNKT TCRs (P15813 20-301): as the sequence (P15813 20-301 limits assumed) above
Sequence of Human iNKT TCRs (P01848 whole entry, further chain): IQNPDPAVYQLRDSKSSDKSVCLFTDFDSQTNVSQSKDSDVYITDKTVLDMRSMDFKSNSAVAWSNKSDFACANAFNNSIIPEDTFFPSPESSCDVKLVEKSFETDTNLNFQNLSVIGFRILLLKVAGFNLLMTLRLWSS
Sequence of Human iNKT TCRs (A0A0B4J240 22-114): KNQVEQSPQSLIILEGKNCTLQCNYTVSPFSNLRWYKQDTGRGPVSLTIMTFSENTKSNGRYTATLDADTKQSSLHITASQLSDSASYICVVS
Sequence of Human iNKT TCRs (P61769 21-119, further chain): as the sequence (P61769 21-119 partner) above
Sequence of Human iNKT TCRs (A0A075B6N4 22-114): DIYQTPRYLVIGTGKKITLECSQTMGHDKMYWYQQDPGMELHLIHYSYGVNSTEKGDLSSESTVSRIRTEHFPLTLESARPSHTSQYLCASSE

Row | Structure (SMILES) | lipid excess at which tetramers were efficiently loaded (hCD1d) | EC50 (human iNKT cell clones) | IL-12 levels in supernatants [1] | IL-13 levels in supernatants [1] | IL-18 levels in supernatants [1] | global IFNγ production in supernatants [1] | ability to activate iNKT cells and stimulate NK cell transactivation (IFNγ+ cells) [1] | CD40L and IFNγ expression by iNKT cells ([1]; iNKT/PBMC 1/10, dose range) | staining of iNKT cell clones by analog-loaded hCD1d tetramers (Human iNKT TCRs) | reactivity of HDD3 iNKT cell clone (human iNKT cell clones; CD4+ clone HDD3) | reactivity of a fraction of the iNKT cell clones tested (human iNKT cell clones; primarily IL-13 production, limited induction of IFNγ) | clones with detectable reactivity (human iNKT cell clones; six clones tested) | stimulation of human iNKT cells in culture (human iNKT cells) | binding to hCD1d (hCD1d) | iNKT cell clone cytokine response / agonist activity (human iNKT cell clones)
1 | CCCCCCCCCCCCCC[C@@H](O)[C@@H](O)[C@H](CO[C@H]1O[C@H](CO)[C@H](O)[C@H](O)[C@H]1O)NC(=O)C12CC3CC(CC(C3)C1)C2 [AD] | 25–50 fold | > 10 µM | undetectable | lower, but still detectable, IL-13 levels | remained low | lower global IFNγ production | lower degree of iNKT cell activation with a limited transactivation of NK cells | induced with high doses | – | – | – | – | – | – | –
2 | CCCCCCCCCCCCCC[C@@H](O)[C@@H](O)[C@H](CO[C@H]1O[C@H](CO)[C@H](O)[C@H](O)[C@H]1O)NC(=O)c1cccc(Br)c1 [BB] | 25–50 fold | > 10 µM | undetectable | lower, but still detectable, IL-13 levels | remained low | lower global IFNγ production | lower degree of iNKT cell activation with a limited transactivation of NK cells | – | – | – | – | – | – | – | –
3 | CCCCCCCCCCCCCCCCCCCCCCCCCC(=O)N[C@@H](CC[C@H]1O[C@H](CO)[C@H](O)[C@H](O)[C@H]1O)[C@H](O)[C@H](O)CCCCCCCCCCCCCC [C-glycoside] | – | – | – | – | – | – | – | – | only a weak staining intensity of a subset of iNKT cell clones tested | did not display detectable reactivity | weak, but detectable, reactivity | Two clones out of six clones tested | only weakly stimulatory | – | –
4 | CCCCCCCCCCCCCC[C@@H](O)[C@@H](O)[C@H](CO[C@H]1O[C@H](CO)[C@H](O)[C@H](O)[C@H]1O)NC(=O)c1ccc(F)c(F)c1 [DFB] | much higher lipid excess was necessary | > 10 µM | undetectable | lower, but still detectable, IL-13 levels | remained low | lower global IFNγ production | lower degree of iNKT cell activation with a limited transactivation of NK cells | – | – | – | – | – | – | weak binding to hCD1d | –
5 | CCCCCCCCCCCCCC[C@@H](O)[C@@H](O)[C@@H](N)CO[C@H]1O[C@H](CO)[C@H](O)[C@H](O)[C@H]1O [Lyso] | – | – | undetectable | lower, but still detectable, IL-13 levels | remained low | lower global IFNγ production | lower degree of iNKT cell activation with a limited transactivation of NK cells | – | failed to detectably stain any of our iNKT cell clones | – | – | – | – | – | substantially lower iNKT cell response
6 | CCCCCCCCCCCCCC[C@@H](O)[C@@H](O)[C@H](CO[C@H]1O[C@H](CO)[C@H](O)[C@H](O)[C@H]1O)NC(=O)c1ccc(C)cc1 [Tol] | 25–50 fold | – | detectable IL-12 generation | high IL-13 levels | enhanced IL-18 levels compared to vehicle control | high global production of IFNγ | – | – | – | – | – | – | – | – | substantially lower iNKT cell response
